Data published in patent US20230085307A1, “PYRIDAZINONE COMPOUND AND HERBICIDE” (NISSAN CHEMICAL CORPORATION, priority 2019, published 2023).

Key:
[1] = system: rice flat sedge; experiment: Test Example 3: herbicidal effect by foliage application, Wagner pot (Table 18, symbol E); type: in vivo, rice flat sedge (Cyperus iria)
How it was run: (§1)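 Plants were sown in alluvial soil held under 0.1–0.5 cm standing water and grown 14 days in a greenhouse at 25–30 °C. An emulsifiable formulation, water-diluted to the set dose, was then sprayed onto the foliage, and effects were scored three weeks later using previously defined criteria.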

[2] = system: Chinese sprangletop; experiment: Test Example 3: herbicidal effect by foliage application, Wagner pot (Table 18, symbol D); type: in vivo, chinese sprangletop (Leptochloa chinensis)
How it was run: as §1

[3] = system: barnyard grass; experiment: Test Example 3: herbicidal effect by foliage application, Wagner pot (Table 18, symbol H); type: in vivo, barnyard grass (Echinochloa crus-galli)
How it was run: as §1

[4] = system: Japanese bulrush; experiment: Test Example 1: herbicidal activity, application before weed generation under submerged conditions (Table 16, symbol B); type: in vivo, Japanese bulrush (Schoenoplectus juncoides)
How it was run: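 Emulsion formulation, water-diluted to set dose, was put onto the flooded surface (4 cm depth, alluvial soil) the same day weeds were sown and 2.5-leaf rice transplanted. After 3 weeks at 25-30 °C under glass, each species was rated 0 (≤5% kill) to 5 (≥90% kill).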

[5] = system: oval-leafed pondweed; experiment: Test Example 1: herbicidal activity, application before weed generation under submerged conditions (Table 16, symbol C); type: in vivo, oval-leafed pondweed (Monochoria vaginalis)
From the text: (§2) [Test Example 1] Herbicidal Activity Test by Application before Weed Generation under Submerged Conditions After alluvial soil was placed into 1/10000 are of Wagner pot, water was poured and mixed to form a submerged condition having a water depth of 4 cm. Seeds of late watergrass, Japanese bulrush, and oval-leafed pondweed were sowed in a mixed manner in the aforementioned pot, and then 2.5 leaf stage rice plant seedlings were transplanted thereto. On the day of sowing seeds, the emulsion agent of the compound of the present invention prepared according to Formulation Example 2 was diluted with water so as to achieve a predetermined herbicide amount, and the diluted emulsion agent was applied to the surface of the water. The pot was placed in a greenhouse at 25° C. to 30° C. for growth of the plants. Three weeks after the herbicide application, the effect of the herbicide on each plant was evaluated according to the following criteria. Evaluation Criteria 5: Herbicidal rate of 90% or more (almost completely withered) 4: Herbicidal rate of 70% or more and less than 90% 3: Herbicidal rate of 40% or more and less than 70% 2: Herbicidal rate of 20% or more and less than 40% 1: Herbicidal rate of 5% or more and less than 20% 0: Herbicidal rate of 5% or less (almost no effect)

[6] = system: late watergrass; experiment: Test Example 1: herbicidal activity, application before weed generation under submerged conditions (Table 16, symbol A); type: in vivo, late watergrass (Echinochloa oryzicola)
From the text: as §2

[7] = system: green foxtail; experiment: Test Example 5: herbicidal effect by foliage application, plastic box (Table 20, symbol G); type: in vivo, green foxtail (Setaria viridis); conditions: foliage application, AAH 320 g/ha, evaluated three weeks after application
How it was run: (§3)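 Sow seeds spot-wise in sterilized diluvial soil; cover with ~1.5 cm soil. Grow 14 days in greenhouse, 25° C. to 30° C. Spray foliage with emulsion diluted to predetermined amount. Rate effect after 3 weeks.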

[8] = system: windgrass; experiment: Test Example 5: herbicidal effect by foliage application, plastic box (Table 20, symbol L); type: in vivo, windgrass (Apera spica-venti); conditions: foliage application, AAH 320 g/ha, evaluated three weeks after application
How it was run: as §3

[9] = system: velvetleaf; experiment: Test Example 5: herbicidal effect by foliage application, plastic box (Table 20, symbol M); type: in vivo, velvetleaf (Abutilon theophrasti); conditions: foliage application, AAH 320 g/ha, evaluated three weeks after application
How it was run: as §3

[10] = system: Italian ryegrass; experiment: Test Example 5: herbicidal effect by foliage application, plastic box (Table 20, symbol K); type: in vivo, Italian ryegrass (Lolium multiflorum); conditions: foliage application, AAH 320 g/ha, evaluated three weeks after application
How it was run: as §3

[11] = system: blackgrass; experiment: Test Example 5: herbicidal effect by foliage application, plastic box (Table 20, symbol J); type: in vivo, blackgrass (Alopecurus myosuroides); conditions: foliage application, AAH 320 g/ha, evaluated three weeks after application
How it was run: as §3

[12] = system: southern crabgrass; experiment: Test Example 5: herbicidal effect by foliage application, plastic box (Table 20, symbol F); type: in vivo, southern crabgrass (Digitaria ciliaris); conditions: foliage application, AAH 320 g/ha, evaluated three weeks after application
How it was run: as §3

[13] = system: wild oat; experiment: Test Example 5: herbicidal effect by foliage application, plastic box (Table 20, symbol I); type: in vivo, wild oat (Avena fatua); conditions: foliage application, AAH 320 g/ha, evaluated three weeks after application
How it was run: as §3

[14] = system: lambsquarters; experiment: Test Example 5: herbicidal effect by foliage application, plastic box (Table 20, symbol O); type: in vivo, lambsquarters (Chenopodium album); conditions: foliage application, AAH 320 g/ha, evaluated three weeks after application
How it was run: as §3

[15] = system: redroot pigweed; experiment: Test Example 5: herbicidal effect by foliage application, plastic box (Table 20, symbol N); type: in vivo, redroot pigweed (Amaranthus retroflexus); conditions: foliage application, AAH 320 g/ha, evaluated three weeks after application
How it was run: as §3

[16] = system: barnyard grass; experiment: Test Example 5: herbicidal effect by foliage application, plastic box (Table 20, symbol H); type: in vivo, barnyard grass (Echinochloa crus-galli); conditions: foliage application, AAH 320 g/ha, evaluated three weeks after application
How it was run: as §3

[17] = system: persian speedwell; experiment: Test Example 5: herbicidal effect by foliage application, plastic box (Table 20, symbol R); type: in vivo, Persian speedwell (Veronica persica); conditions: foliage application, AAH 320 g/ha, evaluated three weeks after application
How it was run: as §3

[18] = amount of applied herbicide 224 g/ha
[19] = amount of applied herbicide 320 g/ha

Cc1nn(C)c(=O)c(-c2c(-c3cccc(OCC(F)(F)F)c3)sc3ccc(F)cc23)c1O [2-238]
herbicidal effect on E: rice flat sedge [1, 18]: 3 (Herbicidal rate of 40% or more and less than 70%) | herbicidal effect on D: Chinese sprangletop [2, 18]: 2 (Herbicidal rate of 20% or more and less than 40%) | herbicidal effect on H: barnyard grass [3, 18]: 3 (Herbicidal rate of 40% or more and less than 70%) | Herbicidal effect on B: Japanese bulrush (grade 0-5) ([4]; 224 g/ha applied herbicide): 0 (Herbicidal rate of 5% or less (almost no effect)) | Herbicidal effect on C: oval-leafed pondweed (grade 0-5) ([5]; 224 g/ha applied herbicide): 0 (Herbicidal rate of 5% or less (almost no effect)) | Herbicidal effect on A: late watergrass (grade 0-5) ([6]; 224 g/ha applied herbicide): 3 (Herbicidal rate of 40% or more and less than 70%)

CSCCOc1cccc(-c2sc3ccc(F)cc3c2-c2c(O)c(C)nn(C)c2=O)c1 [2-273]
G: green foxtail, herbicidal effect (criteria 0-5) [7]: 0 (Herbicidal rate of 5% or less (almost no effect)) | L: windgrass, herbicidal effect (criteria 0-5) [8]: 0 (Herbicidal rate of 5% or less (almost no effect)) | M: velvetleaf, herbicidal effect (criteria 0-5) [9]: 0 (Herbicidal rate of 5% or less (almost no effect)) | Herbicidal effect on B: Japanese bulrush (grade 0-5) ([4]; 320 g/ha applied herbicide): 0 (Herbicidal rate of 5% or less (almost no effect)) | K: Italian ryegrass, herbicidal effect (criteria 0-5) [10]: 1 (Herbicidal rate of 5% or more and less than 20%) | J: blackgrass, herbicidal effect (criteria 0-5) [11]: 0 (Herbicidal rate of 5% or less (almost no effect)) | F: southern crabgrass, herbicidal effect (criteria 0-5) [12]: 0 (Herbicidal rate of 5% or less (almost no effect)) | I: wild oat, herbicidal effect (criteria 0-5) [13]: 0 (Herbicidal rate of 5% or less (almost no effect)) | O: lambsquarters, herbicidal effect (criteria 0-5) [14]: 0 (Herbicidal rate of 5% or less (almost no effect)) | Herbicidal effect on C: oval-leafed pondweed (grade 0-5) ([5]; 320 g/ha applied herbicide): 0 (Herbicidal rate of 5% or less (almost no effect)) | N: redroot pigweed, herbicidal effect (criteria 0-5) [15]: 2 (Herbicidal rate of 20% or more and less than 40%) | H: barnyard grass, herbicidal effect (criteria 0-5) [16]: 0 (Herbicidal rate of 5% or less (almost no effect)) | R: persian speedwell, herbicidal effect (criteria 0-5) [17]: 4 (Herbicidal rate of 70% or more and less than 90%) | Herbicidal effect on A: late watergrass (grade 0-5) ([6]; 320 g/ha applied herbicide): 3 (Herbicidal rate of 40% or more and less than 70%)

Cc1nn(C)c(=O)c(-c2c(-c3cc(C(F)(F)F)cc(C(F)(F)F)c3)sc3ccc(F)cc23)c1O [2-358]
herbicidal effect on E: rice flat sedge [1, 19]: 3 (Herbicidal rate of 40% or more and less than 70%) | herbicidal effect on D: Chinese sprangletop [2, 19]: 1 (Herbicidal rate of 5% or more and less than 20%) | herbicidal effect on H: barnyard grass [3, 19]: 3 (Herbicidal rate of 40% or more and less than 70%) | Herbicidal effect on B: Japanese bulrush (grade 0-5) ([4]; 320 g/ha applied herbicide): 0 (Herbicidal rate of 5% or less (almost no effect)) | Herbicidal effect on C: oval-leafed pondweed (grade 0-5) ([5]; 320 g/ha applied herbicide): 0 (Herbicidal rate of 5% or less (almost no effect)) | Herbicidal effect on A: late watergrass (grade 0-5) ([6]; 320 g/ha applied herbicide): 3 (Herbicidal rate of 40% or more and less than 70%)
